In the supplement of paper PMC10307832:

Assays:
Test in all cases: relative viability (nuclei count vs DMSO), 5 days (fraction); higher = more cells survive
[1] = compound: COC1=CC=C(C=C1)CN2C=CC3=C2C=C(C=C3)C(=O)NO + COc1cc2c(Oc3ccc(NC(=O)C4(C(=O)Nc5ccc(F)cc5)CC4)cc3F)ccnc2cc1OCCCN1CCOCC1 [Foretinib] (partner 0.25 µM)
Outline: (§1)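 After 5 days of treatment, lung cancer cells in 1536-well plates were fixed and stained in a single step (final 0.05% Triton X-100, 1% formaldehyde, 1 ug/ml Hoechst) and their nuclei counted on 4× images. Treatment had been applied by pin tool the day after seeding as one drug alone or as a fixed anchor-drug dose with five library-drug doses (not always all listed) in √10 steps. Relative viability is the nuclei count of treated wells divided by that of vehicle wells, and values are medians of duplicate plates.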

[2] = compound: COC1=CC=C(C=C1)CN2C=CC3=C2C=C(C=C3)C(=O)NO + Nc1ncn([C@H]2C[C@H](O)[C@@H](CO)O2)c(=O)n1 [Decitabine] (partner 2 µM)
Outline: as §1

Veliparib + Navitoclax = compound: C[C@]1(c2nc3c(C(N)=O)cccc3[nH]2)CCCN1 [Veliparib] + CC1(C)CCC(c2ccc(Cl)cc2)=C(CN2CCN(c3ccc(C(=O)NS(=O)(=O)c4ccc(N[C@H](CCN5CCOCC5)CSc5ccccc5)c(S(=O)(=O)C(F)(F)F)c4)cc3)CC2)C1 [Navitoclax] (partner 0.5 µM)
Outline: as §1

Veliparib + Decitabine = compound: C[C@]1(c2nc3c(C(N)=O)cccc3[nH]2)CCCN1 [Veliparib] + Nc1ncn([C@H]2C[C@H](O)[C@@H](CO)O2)c(=O)n1 [Decitabine] (partner 2 µM)
Outline: as §1

Cell Line	relative viability ([1]; first compound 0.08 µM)	relative viability ([1]; first compound 0.253 µM)	relative viability ([1]; first compound 0.8 µM)	relative viability ([1]; first compound 2.53 µM)	relative viability ([1]; first compound 8 µM)	relative viability ([2]; first compound 0.08 µM)	relative viability ([2]; first compound 0.253 µM)	relative viability ([2]; first compound 0.8 µM)	relative viability ([2]; first compound 2.53 µM)	relative viability ([2]; first compound 8 µM)	relative viability (Veliparib + Navitoclax; first compound 0.02 µM)	relative viability (Veliparib + Navitoclax; first compound 0.06325 µM)	relative viability (Veliparib + Navitoclax; first compound 0.2 µM)	relative viability (Veliparib + Navitoclax; first compound 0.6325 µM)	relative viability (Veliparib + Navitoclax; first compound 2 µM)	relative viability (Veliparib + Decitabine; first compound 0.02 µM)	relative viability (Veliparib + Decitabine; first compound 0.06325 µM)	relative viability (Veliparib + Decitabine; first compound 0.2 µM)	relative viability (Veliparib + Decitabine; first compound 0.6325 µM)	relative viability (Veliparib + Decitabine; first compound 2 µM)
201T	1.06	1.15	1.24	1.06	0.999	0.843	0.867	0.856	0.863	0.817	1.21	1.21	1.17	1.19	1.15	0.886	0.844	0.795	0.795	0.785
A549	0.802	0.965	0.948	0.952	0.987	0.187	0.264	0.286	0.235	0.374	1.25	1.18	1.17	1.16	1.13	0.202	0.137	0.0868	0.106	0.0789
A-427		1.03	1.16	1.12	1	0.263		0.554	0.584	0.5	1.05	0.795	0.93	0.938	0.893	0.557	0.473	0.593	0.492	0.546
ABC-1		1.14	1.02	0.935	1.14		1.16	1.21	1.21	0.929								0.82	1.07	1.06
BEN	0.604	0.459	0.454	0.641	0.479	0.677	0.726	0.702	0.664	0.618	0.0726	0.0807	0.0698	0.0678	0.0746	0.572	0.581	0.613	0.565	0.624
CAL-12T	0.918	1	1.2	1.06	1						1.38	1.03	1.3	1.2	1.32					
Calu-6	0.419	0.853	0.851	0.889	0.725						0.946	0.871	0.914	0.824	0.867					
EBC-1	0.0855	0.0996	0.0919	0.102	0.113						0.508	0.405	0.487	0.334	0.407					
HCC-44						0.943	0.992	0.974	0.988	0.881	1.05	0.846	1.02	0.798	0.967	0.941	0.797	0.907	0.857	0.902
IA-LM	0.997	1.33	1.08	1.2	1.06						0.939	0.697	0.755	0.697	0.94					
LCLC-103H	0.68	0.846	0.832	0.789	0.761	0.731	0.812	0.761	0.779	0.681						0.809	0.662	0.667	0.705	0.714
NCI-H358		0.684	0.801	0.575	0.57		0.221	0.292	0.197	0.179						0.208	0.196	0.181	0.156	0.18
NCI-H522							0.649	0.606	0.63	0.765						0.663	0.561	0.547	0.622	0.678
NCI-H650	1.04	1.01	1.04	1.02	0.936	0.298	0.306	0.359	0.3	0.296						0.309	0.283	0.265	0.278	0.317
NCI-H661		1.02	1.03	0.999	0.927		0.591	0.61	0.519	0.44						0.555	0.545	0.481	0.424	0.443
NCI-H1299	1.09	1.1	1.15	1.09	1.05						1.06	0.989	1.03	0.996	1.07					
NCI-H1563	0.762	0.897	0.888	0.928	0.892															
NCI-H1648						0.435	0.553	0.554	0.539	0.46						0.487			0.529	0.424
NCI-H1703		0.374	0.385	0.368	0.307						1.62	0.849	1.08	0.977	1.29					
NCI-H1792						0.523	0.619	0.479	0.469	0.458	0.589	0.5	0.67	0.616	0.564	0.463	0.381	0.397	0.263	0.26
NCI-H2228		1	0.933	0.857	0.609						1.13	0.953	1.01	0.688	1.05					
NCI-H2342	0.997	0.986	0.978	0.956	1.02	0.76	0.733	0.707	0.799	0.769						0.729	0.758	0.679	0.718	0.725
SW 900	0.746	0.822	0.908	0.828	0.719	0.441	0.403	0.446	0.423	0.411							0.377	0.396	0.427	0.388
